Laboratory results as given in PubChem BioAssay (NCI).
Values joined by “and” are separate entries in the source; they are usually repeats but may differ in a detail not shown here. Identical values can stand only once.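 Step 1: Grow cells in 96-well plates. Step 2: Expose to compound for 48 hours at 5 concentrations. Step 3: Interpolate endpoints linearly; if unreached, use highest concentration. GI50 = concentration required for 50% inhibition of growth. TGI marks complete inhibition of growth.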

Columns and labels:
Test in all cases: NCI tumour cell line growth inhibition, 48 h
XF 498 CNS = system: XF 498 CNS
M19-MEL melanoma = system: M19-MEL melanoma
LXFL 529 NSCLC = system: LXFL 529 NSCLC
DLD-1 colon = system: DLD-1 colon
DMS 114 small cell lung = system: DMS 114 small cell lung
HOP-18 NSCLC = system: HOP-18 NSCLC
SNB-78 CNS = system: SNB-78 CNS
MDA-N = system: MDA-N
SN12K1 renal = system: SN12K1 renal
P388 leukemia = system: P388 leukemia
RXF-631 renal = system: RXF-631 renal

Compound | TGI (XF 498 CNS) | TGI (M19-MEL melanoma) [µM] | TGI (LXFL 529 NSCLC) [µM] | TGI (DLD-1 colon) [µM] | TGI (DMS 114 small cell lung) [µM] | TGI (HOP-18 NSCLC) [µM] | TGI (SNB-78 CNS) | TGI (MDA-N) [µM] | further results
Cc1ccc(NC(=O)/C(=N/NC(=O)CC#N)C2C(=O)N(c3ccccc3)N=C2N)cc1C (centres undefined) | > 100 µM | > 100 | > 100 | > 100 | > 100 | > 100 | > 100 µM |  | 
O=C1CC(c2ccccc2)NCN1 (centres undefined) |  | > 100 | > 100 | > 100 | > 100 | > 100 | > 100 µM |  | 
O=C1NC(=O)[C@H]2C3C=CC([C@@H]12)[C@@H]1C(=O)NC(=O)[C@H]31 |  |  |  |  |  |  |  | > 100 | 
Nc1nc(F)nc2c1ncn2C1OC(COP(=O)(O)O)C(O)C1O (centres undefined) | 152 µM | 877 |  | > 1080 | 626 | 552 | 636 µM | 723 | TGI (SN12K1 renal): 277 µM; TGI (P388 leukemia): 150 µM
CCOC(=O)c1ccc(C(O)CC(=O)OC(C)(C)C)[nH]1 (centres undefined) |  |  |  |  |  |  |  | 60.3 | GI50 (MDA-N): 17.8 µM
N#CC(c1ccc(Cl)cc1)c1cccc(Cl)n1 (centres undefined) | 78.7 µM | > 100 | > 100 | > 100 |  |  | > 100 µM |  | 
CCOC(=O)CCc1c(C)c2ccc(O)cc2oc1=O |  |  |  |  |  |  |  | > 100 | 
O[C@H]1[C@H]2[C@H](O)CCCN2C[C@H]1O | > 100 µM | > 100 | > 100 | > 100 | > 100 | > 100 | > 100 µM |  | 
NC1=NN(c2ccccc2)C(=O)C1C(=O)C(=O)Nc1cccc(C(F)(F)F)c1 (centres undefined) | > 100 µM | > 100 | > 100 | > 100 | > 100 | > 100 | > 100 µM |  | TGI (RXF-631 renal): > 100 µM
OCC1OC(O)C(N=Cc2ccc3c(c2)OCO3)C(O)C1O (centres undefined) |  |  |  |  |  |  |  | > 100 | 
CC1=Cc2cc3[n-]c(cc4nc(cc5[n-]c(cc1n2)c(C)c5CCC(=O)O)C(CCC(=O)O)=C4C)cc3C.[Cu+2] | > 1 µM and 26.5 µM | > 100 | > 100 | > 93 | > 44.9 | > 100 | > 1 µM and 8.92 µM | > 100 | GI50 (XF 498 CNS): > 1000 nM and 10200 nM; GI50 (MDA-N): 62.4 µM; GI50 (M19-MEL melanoma): > 100 µM; GI50 (LXFL 529 NSCLC): > 1 µM and 12.4 µM; GI50 (DLD-1 colon): > 42.6 µM; GI50 (DMS 114 small cell lung): > 1 µM and 11.5 µM; GI50 (HOP-18 NSCLC): > 100 µM; GI50 (SNB-78 CNS): > 1000 nM and 2070 nM
C/C(=N\[N+](C)(C)C)C(c1ccccc1)C1(c2ccccc2)C(c2ccccc2)=C1c1ccccc1 (centres undefined) | 50.4 µM | > 100 |  | > 100 |  |  | > 100 µM |  | 
CC(=O)Oc1cc2c(=O)oc3c(OC(C)=O)c(OC(C)=O)c(OC(C)=O)c4c(=O)oc(c1OC(C)=O)c2c34 | 76.5 µM | 40.6 | > 100 | > 100 | 58 | > 100 | > 100 µM |  | TGI (RXF-631 renal): 78.5 µM
Nc1ccn(C2OC(COP(=O)(O)O)C(O)C2O)c(=O)n1 (centres undefined) |  |  |  |  |  |  |  | > 100 | 
c1cncc(-c2cc(-c3cc(-c4cccnc4)n[nH]3)[nH]n2)c1 |  |  |  |  |  |  |  | > 100 | 
O=C(CCc1ccc(O)c(O)c1)c1ccc(O)c(O)c1O |  |  |  |  |  |  |  | 32.2 | 
COC1=CC(C)C2C[C@H]3O[C@H](O)C[C@H]4C(C)C(=O)C(O)C([C@@]2(C)C1=O)[C@@]34C (some centres undefined) |  | > 100 | > 100 | > 100 | > 100 | > 100 | > 100 µM |  | 
O=C(/C=C\c1cccc2ccccc12)c1ccc(Br)cc1 |  | 33.9 | 32.8 | 38.4 | 32.2 | 43.4 | 41.5 µM |  | 

Compound | TGI (XF 498 CNS) | TGI (M19-MEL melanoma) [µM] | TGI (LXFL 529 NSCLC) [µM] | TGI (DLD-1 colon) [µM] | TGI (DMS 114 small cell lung) [µM] | TGI (HOP-18 NSCLC) [µM] | TGI (SNB-78 CNS) | TGI (MDA-N) [µM] | further results
CC(=O)NC(Cc1c[nH]c2ccccc12)C(=O)O (centres undefined) |  |  |  |  |  |  |  | > 100 | 
COc1ccc(/C(Cl)=C(\C=O)c2cc(OC)c(OC)c(OC)c2)cc1OC |  | > 100 | > 100 |  | 85.9 | 58.4 | 88.1 µM | > 100 | TGI (RXF-631 renal): 65.4 µM
C/C=C/CP(=O)(c1ccccc1)c1ccccc1 | > 100 µM | > 100 | > 100 | > 100 | > 100 | > 100 | > 100 µM |  | 
c1cc2[se][se]c3c4cccc5[se][se]c(c(c1)c23)c54 | > 100 µM | > 100 | > 100 | > 100 | > 100 | > 100 | > 100 µM |  | 
CCC[CH2][Sn]([CH2]CCC)([O]C(=O)c1cccc(F)c1F)[O][Sn]([CH2]CCC)([CH2]CCC)[O]C(=O)c1cccc(F)c1F | 0.314 µM | 0.689 | 0.157 | 0.744 | 0.204 | 1.51 | 1.51 µM | 1.16 | GI50 (XF 498 CNS): 173 nM; GI50 (MDA-N): 0.223 µM; GI50 (M19-MEL melanoma): 0.141 µM; GI50 (LXFL 529 NSCLC): 0.0222 µM; GI50 (DLD-1 colon): 0.182 µM; GI50 (DMS 114 small cell lung): 0.0627 µM; GI50 (HOP-18 NSCLC): 0.551 µM; GI50 (SNB-78 CNS): 139 nM; GI50 (RXF-631 renal): 40.9 nM; TGI (RXF-631 renal): 0.398 µM
CC(=O)[CH-]C(C)=O.CC(=O)[CH-]C(C)=O.CC(=O)[CH-]C(C)=O.[Cl-].[Hf+4] |  |  |  |  | > 100 |  |  |  | GI50 (DMS 114 small cell lung): > 100 µM
O=C(Nc1ccc(N=Nc2ccccc2)cc1)Sc1ccccc1C(=O)O |  |  | > 100 |  |  |  | > 100 µM |  | 
Cc1ccc(C2=NN(C)COC2C(F)(F)F)cc1 (centres undefined) |  | > 100 | > 100 | > 100 | > 100 | > 100 | > 100 µM |  | TGI (RXF-631 renal): > 100 µM
COc1ccc(C(=O)O)c2c(=O)c3ccccc3[nH]c12 | > 100 µM | > 100 | > 100 |  |  |  | > 100 µM |  | 
CC1CC(C)C(=O)C(C(=O)CC2CC(=O)NC2=O)C1 (centres undefined) | > 100 µM | > 100 | > 100 | > 100 | > 100 | > 100 | > 100 µM |  | TGI (RXF-631 renal): > 100 µM
C[C@]12CC[C@@H]3c4ccc(OCC(=O)O)cc4CC[C@H]3[C@@H]1CCC2=O |  |  |  |  |  |  |  | > 100 | 
O=C1C=CC(=O)N1c1ccc2c(c1)Cc1cc(NC(=O)C(F)(F)F)ccc1-2 |  |  |  |  |  |  |  | 32.5 | 
O=C(O/N=C1/CCC/C1=C\c1ccccc1)c1ccccc1 |  |  | 89.9 | > 100 | > 100 | > 100 | > 100 µM |  | 
N#Cc1c(C(N)=O)ncn1Cc1ccccc1 | > 100 µM | > 100 | > 100 | > 100 | > 100 | > 100 | > 100 µM |  | TGI (RXF-631 renal): > 100 µM
O=C(CC1(O)C(=O)Nc2ccccc21)c1ccc(O)cc1O (centres undefined) | > 100 µM | > 100 | > 100 | > 100 | > 100 |  | > 100 µM |  | 
Cn1cc(C(=O)/C(Cl)=C(\Cl)C(=O)O)c2ccccc21 | > 100 µM | > 100 |  | > 100 | > 100 |  | > 100 µM |  | TGI (RXF-631 renal): > 100 µM
CCC(=O)Nc1ccc2c(c1)CN1C(=O)c3ccccc3C1=N2 |  |  |  |  |  |  |  | > 100 | GI50 (MDA-N): > 100 µM
CC1(C)OC(=O)C=C(O)O1.CC1(C)OC(=O)C=C(O)O1.CCO.Oc1ccc2c(c1)CCC2.[Ti] |  | > 100 | > 100 | > 100 | > 100 | > 100 | > 100 µM |  | GI50 (M19-MEL melanoma): > 100 µM; GI50 (LXFL 529 NSCLC): > 100 µM; GI50 (DLD-1 colon): > 100 µM; GI50 (DMS 114 small cell lung): > 100 µM; GI50 (HOP-18 NSCLC): > 100 µM; GI50 (SNB-78 CNS): > 100000 nM
